Assay results taken from US8569350B2, “Anti-mitotic anti-proliferative compounds” (Rutgers, The State University of New Jersey, priority 2004, dated 2013).

Columns and labels:
[1] = system: EKVX cells associated with non-small cell lung cancer; experiment: NCI DTP cancer cell growth inhibition, EKVX; type: cell-based; conditions: a large negative number denotes stronger activity
Protocol: (§1) A detailed evaluation of cancer cell growth inhibition effect for T111-T115 was conducted by the NIH-National […] (NCI) Developmental Therapeutic Program (DTP) (FIG. 4). A large negative number denotes stronger activity.

60-cell line panel = experiment: NCI DTP cancer cell growth inhibition, 60-cell line panel overall; type: cell-based; conditions: across the 60-cell line panel
Protocol: as §1

[2] = system: NCI-H522 cells associated with non-small cell lung cancer; experiment: NCI DTP cancer cell growth inhibition, NCI-H522; type: cell-based; conditions: a large negative number denotes stronger activity
Protocol: as §1

[3] = system: NCI-H322M cells associated with non-small cell lung cancer; experiment: NCI DTP cancer cell growth inhibition, NCI-H322M; type: cell-based; conditions: a large negative number denotes stronger activity
Protocol: as §1

Structure (SMILES): COc1ccc(-n2cnnc2-c2cc(OC)c(OC)c(OC)c2)cc1F
- melting point: 151 to 152 °C

Structure (SMILES): COc1ccc(-n2cnnc2-c2cc(OC)c(OC)c(OC)c2)cc1O [Compound T113, 3-(3,4,5-trimethoxyl)phenyl-4-(3-hydroxyl, 4-methoxyl)phenyl-1,2,4(H)triazole]
- melting point: 197 to 198 °C

Structure (SMILES): COc1ccc(-n2cnnc2-c2cc(OC)c(OC)c(OC)c2)cc1 [Compound T111, 3-(3,4,5-trimethoxyl)phenyl-4-(4-methoxyl)phenyl-1,2,4(H)triazole]
- melting point: 163 to 165 °C

Structure (SMILES): COc1cc(-c2nncn2-c2ccc3c(ccn3C)c2)cc(OC)c1OC [Compound T115]
- growth inhibition (log 10GI50) [1]: < −8.00
- melting point: 157 to 159 °C
- overall growth inhibition performance (60-cell line panel): performed uniformly well
- growth inhibition (log 10GI50) [2]: < −8.00
- growth inhibition (log 10GI50) [3]: < −8.00

Structure (SMILES): COc1cc(-c2nncn2-c2ccc(N(C)C)cc2)cc(OC)c1OC [Compound T112, 3-(3,4,5-trimethoxyl)phenyl-4-(N,N-dimethylamino) phenyl-1,2,4(H)triazole]
- melting point: 145 to 147 °C
